Experimental data: US6653306B1, “Epoxy-steroidal aldosterone antagonist and angiotensin II antagonist combination therapy” (G.D. Searle & Co., priority 1995, dated 2003)
Where “and” joins values, the source holds several entries; their conditions need not be identical. Equal values may be shown once. Read-outs that look alike come from different tables or passages of the source.

Key:
[1] = system: pressor response to AII; assay: Assay C: In vivo intragastric pressor assay response for AII antagonists; design: species or system rat; conditions: intragastric, or intraduodenal for examples listed; for inhibition at 10 mg/kg / inhibition at 30 mg/kg / inhibition at 100 mg/kg / inhibition at 3 mg/kg: Rattus norvegicus; for Assay C Inhibition: dose cell empty (dose not given)
Experimental: Assay C: In Vivo Intragastric Pressor Assay Response for AII Antagonists
Male Sprague-Dawley rats weighing 225-300 grams were anesthetized with methohexital (30 mg/kg, i.p.) and catheters were implanted into the femoral artery and vein. The catheters were tunneled subcutaneously to exit dorsally, posterior to the head and between the scapulae. The catheters were filled with heparin (1000 units/ml of saline). The rats were returned to their cage and allowed regular rat chow and water ad libitum. After full recovery from surgery (3-4 days), rats were placed in Lucite holders and the arterial line was connected to a pressure transducer. Arterial pressure was recorded on a Gould polygraph (mmHg). Angiotensin II was administered as a 30 ng/kg bolus via the venous catheter delivered in a 50 μl volume with a 0.2 ml saline flush. The pressor response in mm Hg was measured by the differer.-:e from pre-injection arterial pressure to the maximum pressure achieved. The AII injection was repeated every 10 minutes until three consecutive injections yielded responses within 4 mmHg of each other. These three responses were then averaged and represented the control response to AII. The test compound was suspended in 0.5% methylcellulose in water and was administered by gavage. The volume administered was 2 ml/kg body weight. The standard dose was 3 mg/kg. Angiotensin II bolus injections were given at 30, 45, 60, 75, 120, 150, and 180 minutes after gavage. The pressor response to AII was measured at each time point. The rats were then returned to their cage for future testing. A minimum of 3 days was allowed between tests. Percent inhibition was calculated for each time point following gavage by the following formula:
[(Control Response—Response at time point)/Control Response]×100.

[2] = target: angiotensin II AT1 receptor; assay: Assay A: Angiotensin II binding activity (125I-AII displacement, rat uterine membrane preparation)
[3] = system: rabbit aortic rings; assay: Assay B: In vitro vascular smooth muscle response for AII (antagonist activity, pA2); format: cell-based; conditions: two values per cell separated by / are separate determinations; for Kb: Oryctolagus cuniculus
Experimental: Assay B: In Vitro Vascular Smooth Muscle-response for AII
The compounds of the invention were tested for antagonist activity in rabbit aortic rings. Male New Zealand white rabbits (2-2.5 kg) were sacrificed using an overdose of pentobarbital and exsanguinated via the carotid arteries. The thoracic aorta was removed, cleaned of adherent fat and connective tissue and then cut into 3-mm ring segments. The endothelium was removed from the rings by gently sliding a rolled-up piece of filter paper into the vessel lumen. The rings were then mounted in a water-jacketed tissue bath, maintained at 37° C., between moveable and fixed ends of a stainless steel wire with the moveable end attached to an FT03 Grass transducer coupled to a Model 7D Grass Polygraph for recording isometric force responses. The bath was filled with 20 ml of oxygenated (95% oxygen/5% carbon dioxide) Krebs solution of the following composition (mM): 130 NaCl, […], 15 KCl, 1.2 NaH2PO4, 1.2 MgSO4, 2.5 CaCl2, and 11.4 glucose. The preparations were equilibrated for one hour before approximately one gram of passive tension was placed on the rings. Angiotensin II concentration-response curves were then recorded (3×10^−10 to 1×10^−5 M). Each concentration of AII was allowed to elicit its maximal contraction, and then AII was washed out repeatedly for 30 minutes before rechallenging with a higher concentration of AII. Aorta rings were exposed to the test antagonist at […] for 5 minutes before challenging with AII. Adjacent segments of the same aorta ring were used for all concentration-response curves in the presence or absence of the test antagonist. The effectiveness of the test compound was expressed in terms of pA2 values and were calculated according to H. O. Schild [Br. J. Pharmacol, Chemother., 2,189-206 (1947)]. The pA2 value is the concentration of the antagonist which increases the EC50 value for AII by a factor of two. Each test antagonist was evaluated in aorta rings from two rabbits.

[4] = in vitro vascular smooth muscle response, read-out: Assay B pA2 (converted)

SMILES	IC50 [2] [nM]	Kb [3, 4] [nM]	inhibition at 3 mg/kg ([1]; dose 3 mg/kg) [%]	Assay C Duration ([1]; dose 3 mg/kg) [min]	also measured
CCCCc1nc(CCc2ccccc2)nn1Cc1ccc(-c2ccccc2-c2nnn[nH]2)cc1 [Compound 26]	3.2	0.148			inhibition at 10 mg/kg ([1]; dose 10 mg/kg): 50%; Assay C Duration ([1]; dose 10 mg/kg): >180 min
CCCCc1nc(C(=O)CCC)nn1Cc1ccc(-c2ccccc2-c2nnn[nH]2)cc1 [Compound 30]	22	18.6			inhibition at 30 mg/kg ([1]; dose 30 mg/kg): 50%; Assay C Duration ([1]; dose 30 mg/kg): >180 min
CCCCc1nn(CCCC)c(=O)n1Cc1ccc(-c2ccccc2C(=O)O)cc1 [Compound 78]	101	100			Assay C Inhibition [1]: 93%
CCCCc1nn(CCCc2ccccc2)c(=O)n1Cc1ccc(-c2ccccc2-c2nn[nH]n2)cc1 [Compound 81]	18	10			Assay C Inhibition [1]: 40%
CCCCc1nn(CC(O)c2ccccc2)c(=O)n1Cc1ccc(-c2ccccc2-c2nn[nH]n2)cc1 (stereo not shown) [Compound 83]	3.6	5.01			Assay C Inhibition [1]: 15%
CCCCc1nn(CC(=O)OC(C)(C)C)c(=O)n1Cc1ccc(-c2ccccc2-c2nn[nH]n2)cc1 [Compound 84]	16	79.4			Assay C Inhibition [1]: 20%
CCCCc1nn(CC(OCC(=O)O)c2ccccc2)c(=O)n1Cc1ccc(-c2ccccc2-c2nn[nH]n2)cc1 (stereo not shown) [Compound 91]	30	2.51			Assay C Inhibition [1]: 40%
CCCCc1nc2cnncc2n1Cc1ccc(-c2ccccc2C(=O)O)cc1 [Compound 108]	720	5010			inhibition at 100 mg/kg ([1]; dose 100 mg/kg): 45%; Assay C Duration ([1]; dose 100 mg/kg): 90 min
CCCCc1nc2c(O)nnc(O)c2n1Cc1ccc(-c2ccccc2C(=O)O)cc1 [Compound 109]	250	50.1			inhibition at 30 mg/kg ([1]; dose 30 mg/kg): 50%; Assay C Duration ([1]; dose 30 mg/kg): 30 min
CCCCc1nc2c(O)nnc(O)c2n1Cc1ccc(-c2ccccc2-c2nnn[nH]2)cc1 [Compound 111]		1			inhibition at 30 mg/kg ([1]; dose 30 mg/kg): 87%
CCCCc1nc2c(CCC)nnc(O)c2n1Cc1ccc(-c2ccccc2-c2nnn[nH]2)cc1 [Compound 113]		3.98			inhibition at 10 mg/kg ([1]; dose 10 mg/kg): 60%; Assay C Duration ([1]; dose 10 mg/kg): 180 min
CCCCc1nc2cnnc(O)c2n1Cc1ccc(-c2ccccc2-c2nnn[nH]2)cc1 [Compound 115]		6.31	40	>240	
CCCCc1nc2c(OC(=O)C(C)C)nnc(O)c2n1Cc1ccc(-c2ccccc2-c2nnn[nH]2)cc1 [Compound 119]		0.617	20	60	
CCCCc1nc2c(OC(=O)C3CCCCC3)nnc(O)c2n1Cc1ccc(-c2ccccc2-c2nnn[nH]2)cc1 [Compound 120]		0.891			inhibition at 10 mg/kg ([1]; dose 10 mg/kg): 80%; Assay C Duration ([1]; dose 10 mg/kg): 240 min
CCCCc1nc2c(OC(=O)Cc3ccccc3)nnc(O)c2n1Cc1ccc(-c2ccccc2-c2nnn[nH]2)cc1 [Compound 124]			45	>180	Kb ([3]; read-out: Assay B pA2, in vitro vascular smooth muscle response (converted)): 0.38 nM
CCCCc1cn(CCc2ccccc2)c(=O)n1Cc1ccc(-c2ccccc2-c2nnn[nH]2)cc1 [Compound 133]	10	2	20	180	
CCCCc1cn(CCc2cccs2)c(=O)n1Cc1ccc(-c2ccccc2-c2nnn[nH]2)cc1 [Compound 134]	22	0.501	35	180	
CCCCc1cn(-c2ccccc2Cl)c(=O)n1Cc1ccc(-c2ccccc2-c2nnn[nH]2)cc1 [Compound 135]	16	3.16	35	>180	
CCCCc1nc(CCCC)n(Cc2ccc(-n3c(Cl)cc(Cl)c3-c3nnn[nH]3)cc2)n1 [Compound 143]	0.052	20			Assay C Inhibition [1]: 85%

SMILES	IC50 [2] [nM]	Kb [3, 4] [nM]	inhibition at 3 mg/kg ([1]; dose 3 mg/kg) [%]	Assay C Duration ([1]; dose 3 mg/kg) [min]	also measured
CCCCc1nc(Cl)c(Cl)n1Cc1ccc(-n2cccc2C(=O)O)cc1 [Compound 147]	5.8	2510	74	5 to 10	
CCCCc1nc(Cl)c(CO)n1Cc1ccc(-n2cccc2C(=O)O)cc1 [Compound 148]		1580	92	20 to 30	
CCCCc1nc(Cc2ccc(-c3ccccc3-c3nnn[nH]3)nc2)n(CCCC)n1 [Compound 150]	14	9.33	25	>180	
CCCCn1nc(CCC)nc1Cc1ccc(-c2ccccc2-c2nnn[nH]2)nc1 [Compound 152]	150	34.7	10	140	
CCCCn1nc(-c2ccccc2Cl)nc1Cc1ccc(-c2ccccc2-c2nnn[nH]2)nc1 [Compound 158]	54	5.89	30	>180	
CCCn1nc(C(F)(F)CCC)nc1Cc1ccc(-c2ccccc2-c2nnn[nH]2)nc1 [Compound 169]	150	16.6	15	180	
CCCCn1nc(C=O)nc1Cc1ccc(-c2ccccc2-c2nnn[nH]2)nc1 [Compound 179]	310	214			
CCCCc1nc(Cc2ccc(-c3ccccc3-c3nnn[nH]3)nc2)n(CC(C)(C)C)n1 [Compound 184]	1100	166			
CCCCc1nc(CCCC)n(Cc2ccc(-c3ccccc3-c3nnn[nH]3)cn2)n1 [Compound 239]		13.2	20		
CCCCc1nc(CCCC)n(Cc2ccc(-c3cnccc3-c3nnn[nH]3)cc2)n1 [Compound 244]	150	67.6			
CCCc1nc(CCC)n(Cc2ccc(-c3ccccc3-c3nnn[nH]3)nc2)n1 [Compound 246]	72	34.7			
CCCCc1nc(C(=O)NC)nn1Cc1ccc(-c2ccccc2-c2nnn[nH]2)nc1 [Compound 257]	160	234			
CCCCc1nc(C(=O)NC)n(Cc2ccc(-c3ccccc3-c3nnn[nH]3)nc2)n1 [Compound 258]	350	145			
CCCCc1nc(-c2ccccc2C)n(Cc2ccc(-c3ccccc3-c3nnn[nH]3)nc2)n1 [Compound 262]	530	603			
CCCCc1cn(-c2c(C(C)C)cccc2C(C)C)c(=O)n1Cc1ccc(-c2ccccc2-c2nnn[nH]2)cc1 [Compound 277]	190	288			
CCCCc1cn(-c2c(C)cc(C(C)(C)C)cc2C)c(=O)n1Cc1ccc(-c2ccccc2-c2nnn[nH]2)cc1 [Compound 279]	270				Assay B pA2 ([3]; in vitro vascular smooth muscle response): 8.06 and 8.25
CCCCc1nc(C)nn1Cc1ccc(-c2ccccc2C(=O)O)cc1 [Compound 280]	480	389			
CCCCc1nc(Cl)nn1Cc1ccc(-c2ccccc2C(=O)O)cc1 [compound 6]		282			inhibition at 100 mg/kg ([1]; dose 100 mg/kg): 90%
CCCCc1nc(Cl)nn1Cc1ccc(-c2ccccc2-c2nnn[nH]2)cc1 [compound 7]		9.77			inhibition at 30 mg/kg ([1]; dose 30 mg/kg): 90%
